From US7976863B2, “Biomedical devices with antimicrobial coatings” (priority 2002, dated 2011)
Ends that are not written are not given here.

Experiments:
Type in all cases: cell-based
P. aeruginosa 6294 [1] = conditions: for minimum concentration required to inhibit bacterial growth, P.a 6284: MIC, peptide in solution, 18 hours at 35° C.
Description: (§1) To assess the effect of cationic proteins/peptides in solution against bacterial cells, Psudomonas aeruginosa 6294 and Staphylacoccus aureus 31 cells were grown as for 18 hours in Tryptone Soya Broth (TSB) at 35° C. The cells were then harvested by centrifugation and washed twice in phosphate buffered saline (PBS; NaCl 8 g/l; KCl 0.2 g/l; Na2HPO4 1.15 g/l; KH2PO4 0.2 g/l). The cells were then re-suspended to OD 0.1 at 660 nm in PBS. The cationic peptide was serially diluted from 1 mg/ml and dilutions were added to wells in a 96 well microtitre plate or into 5 ml disposable test-tubes. Controls were bacteria without peptides. Bacteria were incubated for 18 hours at 35° C. and turbidity was measured at 660 nm. A lack of turbidity in the test-tube corresponding to the peptide dilution was considered to be the minimum inhibitory concentration (“MIC”).

P. aeruginosa 15442 [2] = assay: Viable counts of bacteria adhered to peptide-adsorbed Etafilcon A lenses; conditions: 500 μg/lens adsorbed on Etafilcon A lens, vs uncoated control lens
Description: (§2) For conducting viable counts, Etafilcon A lenses were removed from the manufacturers vials, washed three times in 1 ml PBS, dried and then coated by pipetting 500 μg L-Melimine onto the contact lenses (melimine was dissolved in […] and air dried onto contact lenses) overnight at ambient temperature in a fume hood. Lenses were rehydrated in PBS for 10 minutes and 0.5 ml of 1×10^8 bacterial cells/ml, including gram-positive S. aureus and gram-negative P. aeruginosa were added to the lenses. After incubation at ambient temperature for either 10 min or 5 hours, the lenses were washed three times in PBS to remove non-adherent or loosely adherent bacteria. Lenses were then homogenized using tissue homogenizer and 1 ml PBS until lens disintegration (about 1-2 minutes). Serial dilutions were then made according to the technique of Miles and Misra and aliquots (20 μL) plated out on nutrient agar. After incubation overnight at 37° C., viable bacteria were determined and results expressed as colony forming units/mm^2 after calculation of the surface area of the lens (approximately 310 mm^2). The effects are calculated based upon comparison to adhesion control lens that was not coated with cationic protein/peptide before bacterial adhesion testing.
(§3) Stock solutions (50 mg/ml) were prepared containing the L-Protattin in distilled water. 500 μg of the stock solution was adsorbed to a contact lens made from Etafilcon A as for L-melamine in Example 2 for 18 hours at ambient temperature in a fume hood. The subsequent experimental details are as described in Example 2, above and viable bacteria was measured.

S. aureus CK5 [3] = assay: as above; conditions: 500 μg/lens adsorbed on Etafilcon A lens, vs uncoated control lens
Description: as §2, §3

P. aeruginosa 6294 [4] = assay: as above; conditions: 500 μg/lens adsorbed on Etafilcon lens, vs uncoated control lens
Description: as §2
(§4) Etafilcon lenses, commercially available from Johnson & Johnson as ACUVUE® Brand contact lenses) were soaked as in Example 2, above, except that the L-melimine concentration was varied: 125 μg, 250 μg or 500 μg/lens. After absorption of L-Melimine onto the hydrogel polymer, the lenses were rehydrated with PBS, and exposed to S. aureus or P. saeruginosa for either 10 minutes or five hours, as described in Example 2. After exposure, the polymer was evaluated for numbers of microorganisms the standard Miles and Misra plate count assay.
as §3
(§5) Contact lenses were coated and dried (as in Example 2) and D-Melimine applied at a concentration of either 250 μg per lens or 500 μg per lens. D-melimine was made using D-amino acids as for L-melimine using standard peptide synthesis techniques (e.g. Fmoc). Assays for measuring inhibition of bacterial adhesion were performed as in Example 2.

S. aureus 31 [5] = assay: as above; conditions: 500 μg/lens adsorbed on Etafilcon lens, vs uncoated control lens
Description: as §2, §4, §3, §5

S. aureus CK5 [6] = assay: MIC in solution (tube/microtitre turbidity); conditions: MIC, peptide in solution, 18 hours at 35° C.
P. aeruginosa 15442 [7] = assay: MIC in solution (tube/microtitre turbidity); conditions: MIC, peptide in solution, 18 hours at 35° C.
S. aureus 31 [8] = assay: MIC in solution (tube/microtitre turbidity); conditions: MIC, peptide in solution, 18 hours at 35° C.
Description: as §1

P. aeruginosa 6294 [9] = assay: Heat stability study: inhibition of growth in solution after autoclaving; conditions: 1000 μg/ml in PBS mixed with equal volume of bacteria
Description: (§6) A heat stability study was conducted to evaluate whether post-exposure of the L-Melimine to autoclaving would alter the ability of the peptide to prevent bacterial growth.
(§7) Bacteria (P. aeruginosa 6294 and S. aureus 31) were grown for 18 hours at 35° C. in TSB, then washed twice in PBS. The bacteria were resuspended in PBS to an optical density of 0.1 at 660 nm. L-Melimine was dissolved in PBS to a concentration of 1000 μg/ml and autoclaved at 121° C. for 15 minutes. Equal volumes of bacterial suspension and L-Melimine were then added together and incubated at 35° C. for periods of up to 72 hours. Controls were non-autoclaved L-Melimine. After 24, 48 and 72 hours, aliquots of the bacteria/L-Melimine solutions were removed and the number of viable bacteria were counted using the standard Miles and Misra plate count assay.

S. aureus 31 [10] = assay: as above; conditions: 1000 μg/ml in PBS mixed with equal volume of bacteria
Description: as §6, §7

sheep red blood cells = assay: Lysis of sheep red blood cells; conditions: 37° C. for 4 h, various concentrations
Description: FIG. 1 is a graph showing the % lysis sheep red blood cells relative to water for various peptides.
(§8) For in vitro cytotoxic testing, solutions of L-Melimine were prepared in PBS (500 μg/ml, 250 μg/ml, 125 μg/ml and 62.5 μg/ml). Solutions were then diluted 1:3 in tissue culture media (EMEM) and added to murine L929 cells for 48 hours. Cells are rinsed in saline then harvested using 0.25% trypsin for 3-5 minutes at ambient temperature. 1 ml of saline is then added to cells and trypsin mixture, a 500 μl aliquot is added to 19.5 ml of saline and counted in a coulter counter in triplicate. Results are compared to unperturbed cultures as well as positive (cyotoxic) controls. Results are expressed as percentage of non-viable cells (100-number of cells in sample/number of cells in unperturbed cells×100). In addition, the ability of the peptides to lyze sheep red blood cells was examined. The sheep red blood cells were washed and resuspended in PBS. Peptides at various concentrations were added to the red blood cells and incubated at 37° C. for 4 h. 100% lysis was obtained using distilled water and 0% lysis was obtained using PBS. Lysis was measured by measuring the amount of haemoglobin released into the PBS after centrifugation to remove whole red blood cells.

murine L929 cells = assay: In vitro cytotoxic testing; conditions: for % cell inhibition: 48 hours
Description: as §8

P. aeruginosa = tested on: P. aeruginosa
Description: as §1
(§9) L-Melimine was evaluated to determine its potential to induce resistance in P. aeruginosa and S. aureus. Prior to L-Melimine exposure, MICs of both strains were determined as in Example 1. […] Bacteria were grown overnight in TSB. Bacteria were inoculated 1:100 into fresh TSB containing sub-inhibitory levels of L-Melimine and incubated overnight. Bacteria from the broth containing sub-inhibitory levels (column 2, Table 9) were then re-incubated in fresh TSB with the same concentration of L-Melimine. This was repeated for 30 consecutive days. After passaging, a MIC for the bacteria from the last passage was determined. Any increase in MIC would indicate a potential for bacteria to become resistant.

S. aureus = tested on: S. aureus
Description: as §1, §9

[11] = Autoclaved at 121° C. for 15 minutes
[12] = Treatment None (non-autoclaved)

RPRVSRRRRRRGGRRRRTLISWIKNKRKQ (RPRVSRRRRRRGGRRRRTLISWIKNKRKQ) [Prottatin]
minimum concentration required to inhibit bacterial growth, P.a 6284 (P. aeruginosa 6294 [1]): 500 µg/mL
% reduction at 10 min (P. aeruginosa 15442 [2]): 94 ± 4 (8) %
% reduction at 5 hrs (P. aeruginosa 15442 [2]): 63 ± 32 (7) %
% reduction at 10 min (S. aureus CK5 [3]): 6 ± 62 (7) %
% reduction at 5 hrs (S. aureus CK5 [3]): 3 ± 25 (7) %
% reduction at 10 min (P. aeruginosa 6294 [4]): 97 ± 5 (6) %
% reduction at 5 hrs (P. aeruginosa 6294 [4]): 57 ± 39 (6) %
% reduction at 10 min (S. aureus 31 [5]): 64 ± 18 (6) %
% reduction at 5 hrs (S. aureus 31 [5]): 43 ± 33 (6) %
minimum concentration required to inhibit bacterial growth, S.a. CK5 (S. aureus CK5 [6]): 500 µg/mL
minimum concentration required to inhibit bacterial growth, P.a 15442 (P. aeruginosa 15442 [7]): 1000 µg/mL
minimum concentration required to inhibit bacterial growth, S.a. 31 (S. aureus 31 [8]): 1000 µg/mL

RPRVSRRRRRRGGRRRR [Protamine (1-17), 1-17 segment of protamine, segment B]
minimum concentration required to inhibit bacterial growth, P.a 6284 (P. aeruginosa 6294 [1]): R (R = resistant, highest concentration of peptide = 1000 ug/Ml)
minimum concentration required to inhibit bacterial growth, S.a. CK5 (S. aureus CK5 [6]): 1000 µg/mL
minimum concentration required to inhibit bacterial growth, P.a 15442 (P. aeruginosa 15442 [7]): R (R = resistant, highest concentration of peptide = 1000 ug/Ml)
minimum concentration required to inhibit bacterial growth, S.a. 31 (S. aureus 31 [8]): R (R = resistant, highest concentration of peptide = 1000 ug/Ml)

TLISWIKNKRKQRPRVSRRRRRRGGRRRR [Melimine, TLISWIKNKRKQRPRVSRRRRRRGGRRRR]
MIC, P. aeruginosa resistant up to (P. aeruginosa 6294 [1]; text summary of Table 1, highest concentration used): > 1000 µg/mL
% inhibition of growth @ 24 hours (P. aeruginosa 6294 [9]; [11]): 100 (3) %
% inhibition of growth @ 48 hours (P. aeruginosa 6294 [9]; [11]): 100 (3) %
% inhibition of growth @ 72 hours (P. aeruginosa 6294 [9]; [11]): 100 (2) %
% inhibition of growth @ 24 hours (P. aeruginosa 6294 [9]; [12]): 100 (5) %
% inhibition of growth @ 48 hours (P. aeruginosa 6294 [9]; [12]): 100 (3) %
% inhibition of growth @ 72 hours (P. aeruginosa 6294 [9]; [12]): 100 (2) %
% inhibition of growth @ 24 hours (S. aureus 31 [10]; [11]): 100 (3) %
% inhibition of growth @ 48 hours (S. aureus 31 [10]; [11]): 100 (3) %
% inhibition of growth @ 72 hours (S. aureus 31 [10]; [11]): 99 (2) %
% inhibition of growth @ 24 hours (S. aureus 31 [10]; [12]): 100 (5) %
% inhibition of growth @ 48 hours (S. aureus 31 [10]; [12]): 100 (3) %
% inhibition of growth @ 72 hours (S. aureus 31 [10]; [12]): 99 (2) %
hemolysis of red blood cells (FIG. 1, % lysis relative to water) (sheep red blood cells): least amount of hemolysis of any peptide/protein
% cell inhibition (murine L929 cells; 62.5 μg/ml solution in PBS diluted 1:3 in EMEM): 20%
% cell inhibition (murine L929 cells; 125 μg/ml solution in PBS diluted 1:3 in EMEM): 8%
% cell inhibition (murine L929 cells; 250 μg/ml solution in PBS diluted 1:3 in EMEM): 26%
% cell inhibition (murine L929 cells; 500 μg/ml solution in PBS diluted 1:3 in EMEM): 44%
cytotoxicity (in words) (murine L929 cells; at 500 μg/ml): marginally cytotoxic
cytotoxicity (in words) (murine L929 cells; at all other concentrations (250, 125, 62.5 μg/ml)): non-cytotoxic
MIC post-passage (P. aeruginosa; after 30 consecutive days passage): 4 mg/mL
MIC prior to passage (P. aeruginosa; starting concentration raised to 15 mg/ml, procedure of Example 1): 4 mg/mL
MIC post-passage (S. aureus; after 30 consecutive days passage at 30 μg/ml): 63 µg/mL
MIC prior to passage (S. aureus; procedure of Example 1): 125 µg/mL

PRRRRSSSRPVRRRRRPRVSRRRRRRGGRRRR [Protamine, full-length protamine comparison]
minimum concentration required to inhibit bacterial growth, P.a 6284 (P. aeruginosa 6294 [1]): R (R = resistant, highest concentration of peptide = 1000 ug/Ml)
minimum concentration required to inhibit bacterial growth, S.a. 31 (S. aureus 31 [8]): R (R = resistant, highest concentration of peptide = 1000 ug/Ml)

CC[C@H](C)[C@H](NC(=O)CN)C(=O)NCC(=O)N[C@@H](C)C(=O)N[C@H](C(=O)N[C@@H](CC(C)C)C(=O)N[C@@H](CCCCN)C(=O)N[C@H](C(=O)N[C@@H](CC(C)C)C(=O)N[C@H](C(=O)N[C@H](C(=O)NCC(=O)N[C@@H](CC(C)C)C(=O)N1CCC[C@H]1C(=O)N[C@@H](C)C(=O)N[C@@H](CC(C)C)C(=O)N[C@H](C(=O)N[C@@H](CO)C(=O)N[C@@H](Cc1c[nH]c2ccccc12)C(=O)N[C@H](C(=O)N[C@@H](CCCCN)C(=O)N[C@@H](CCCNC(=N)N)C(=O)N[C@@H](CCCCN)C(=O)N[C@@H](CCCNC(=N)N)C(=O)N[C@@H](CCC(N)=O)C(=O)N[C@@H](CCC(N)=O)C(N)=O)[C@@H](C)CC)[C@@H](C)CC)[C@@H](C)O)[C@@H](C)O)C(C)C)C(C)C [Mellitin]
minimum concentration required to inhibit bacterial growth, P.a 6284 (P. aeruginosa 6294 [1]): R (R = resistant, highest concentration of peptide = 1000 ug/Ml)
hemolysis of red blood cells (FIG. 1, % lysis relative to water) (sheep red blood cells): extensive hemolysis
minimum concentration required to inhibit bacterial growth, S.a. 31 (S. aureus 31 [8]): 15 µg/mL

TLISWIKNKRKQ [Mellitin (15-26), 15-26 segment of mellitin, segment A]
minimum concentration required to inhibit bacterial growth, P.a 6284 (P. aeruginosa 6294 [1]): R (R = resistant, highest concentration of peptide = 1000 ug/Ml)
minimum concentration required to inhibit bacterial growth, S.a. CK5 (S. aureus CK5 [6]): R (R = resistant, highest concentration of peptide = 1000 ug/Ml)
minimum concentration required to inhibit bacterial growth, P.a 15442 (P. aeruginosa 15442 [7]): R (R = resistant, highest concentration of peptide = 1000 ug/Ml)
minimum concentration required to inhibit bacterial growth, S.a. 31 (S. aureus 31 [8]): R (R = resistant, highest concentration of peptide = 1000 ug/Ml)
